For 13 compounds, MIC results are on record in ChEMBL document CHEMBL3421558, “Structure activity relationship of substituted 1,5-naphthyridine analogs of oxabicyclooctane-linked novel bacterial topoisomerase inhibitors as broad-spectrum antibacterial agents (Part-4)” (Bioorg Med Chem Lett, 2015).

Holding throughout (type): functional
In experiment [1] the test system is Staphylococcus aureus. Put plainly: Antimicrobial activity against Staphylococcus aureus Smith by micro broth dilution or agar based method. In general terms: In broth dilution the organism is exposed to a series of concentrations in liquid medium.
The subject of another experiment is Streptococcus pneumoniae. The experiment in a line: Antimicrobial activity against Streptococcus pneumoniae IID553 by micro broth dilution or agar based method.
The test system of a further experiment is Enterococcus faecium. Put plainly: Antimicrobial activity against VanA expressing vancomycin-resistant Enterococcus faecium by micro broth dilution or agar based method.
The next experiment has as its system Escherichia coli. Put plainly: Antimicrobial activity against Escherichia coli ATCC 25922 by micro broth dilution or agar based method.
The test system of a further experiment is Acinetobacter baumannii. Put plainly: Antimicrobial activity against Acinetobacter baumannii IID876 by micro broth dilution or agar based method.
For the next experiment, the system named is Pseudomonas aeruginosa. The experiment in a line: Antimicrobial activity against Pseudomonas aeruginosa PAO1 by micro broth dilution or agar based method.
Experiment [2] deals with Staphylococcus aureus. Put plainly: Antimicrobial activity against methicillin-resistant Staphylococcus aureus OIT971 by micro broth dilution or agar based method.
Where [3] appears, read: Staphylococcus aureus, Smith, read-out: MIC.
[4] abbreviates: Streptococcus pneumoniae, IID553, read-out: MIC.
[5] abbreviates: Enterococcus faecium, read-out: MIC.
Setting [6] is: Escherichia coli, ATCC 25922, read-out: MIC.
The mark [7] stands for this setting: Acinetobacter baumannii, IID876, read-out: MIC.
Where [8] appears, read: Pseudomonas aeruginosa, PAO1, read-out: MIC.

Values after ≈ are worked out from the molar mass of the structure shown.

Usually MIC stands for the least concentration at which growth counts as inhibited.

Turning to `COc1ccc2ncc(C(F)(F)F)c(CCC34CCC(NCc5ccc6c(n5)NC(=O)CO6)(CC3)CO4)c2n1`, the MIC in the experiment on Staphylococcus aureus [1] (setting [3]) amounted to 0.03 µg/mL (≈ 0.0552 µM); in the experiment on Streptococcus pneumoniae (setting [4]) it was 0.25 µg/mL (≈ 0.46 µM); with Enterococcus faecium (setting [5]), 1 µg/mL (≈ 1.84 µM); in the experiment with Escherichia coli (setting [6]), 4 µg/mL (≈ 7.36 µM); in the experiment with Acinetobacter baumannii (setting [7]), 2 µg/mL (≈ 3.68 µM); with Pseudomonas aeruginosa (setting [8]), 32 µg/mL (≈ 58.9 µM).
Regarding `COc1ccc2ncc(C)c(CCC34CCC(NCc5ccc6c(n5)NC(=O)CO6)(CC3)CO4)c2n1`, the minimum inhibitory concentration (MIC) in the experiment with Staphylococcus aureus [1] (setting [3]) was 0.06 µg/mL (≈ 0.123 µM); in the experiment on Streptococcus pneumoniae (setting [4]) it was 0.06 µg/mL (≈ 0.123 µM); in the experiment on Enterococcus faecium (setting [5]), 1 µg/mL (≈ 2.04 µM); in the experiment on Escherichia coli (setting [6]), 4 µg/mL (≈ 8.17 µM); in the experiment with Acinetobacter baumannii (setting [7]) it was 2 µg/mL (≈ 4.09 µM); with Pseudomonas aeruginosa (setting [8]), 16 µg/mL (≈ 32.7 µM).
With `COc1ccc2ncc(F)c(C[C@H](O)C34CCC(NCc5ccc6c(n5)NC(=O)CO6)(CC3)CO4)c2n1`, the MIC in the experiment with Staphylococcus aureus [1] (setting [3]) was found to be 0.02 µg/mL (≈ 0.0393 µM); in the experiment with Staphylococcus aureus [2], 0.06 µg/mL (≈ 0.118 µM); in the experiment on Streptococcus pneumoniae (setting [4]), 0.05 µg/mL (≈ 0.0981 µM); in the experiment with Enterococcus faecium (setting [5]) it was 0.5 µg/mL (≈ 0.981 µM); with Escherichia coli (setting [6]), 2 µg/mL (≈ 3.93 µM); with Acinetobacter baumannii (setting [7]) it was 0.5 µg/mL (≈ 0.981 µM). Besides, the MIC in the experiment on Pseudomonas aeruginosa (setting [8]) worked out at 8 µg/mL (≈ 15.7 µM).
As to `Cc1nc2c(CCC34CCC(NCc5ccc6c(n5)NC(=O)CO6)(CC3)CO4)ccnc2cc1C#N`, the MIC in the experiment on Staphylococcus aureus [1] (setting [3]), in the experiment on Staphylococcus aureus [2], in the experiment on Streptococcus pneumoniae (setting [4]), in the experiment with Enterococcus faecium (setting [5]), in the experiment with Escherichia coli (setting [6]) and with Acinetobacter baumannii (setting [7]) was 16 µg/mL (≈ 33 µM) each time. Further, in the experiment with Pseudomonas aeruginosa (setting [8]), the MIC was found to be 16 µg/mL (≈ 33 µM).
As to `COc1ccc2ncc(C#N)c(CC(O)C34CCC(NCc5ccc6c(n5)NC(=O)CO6)(CC3)CO4)c2n1` (single isomer, unassigned; (-)), the MIC in the experiment on Staphylococcus aureus [1] came to 0.063 µg/mL (≈ 0.122 µM); in the experiment with Streptococcus pneumoniae, 0.25 µg/mL (≈ 0.484 µM); against Enterococcus faecium, 2 µg/mL (≈ 3.87 µM); against Escherichia coli, 4 µg/mL (≈ 7.74 µM); against Acinetobacter baumannii, 1 µg/mL (≈ 1.94 µM); with Pseudomonas aeruginosa, 16 µg/mL (≈ 31 µM).
With `COC(=O)c1ccc2ncc(F)c(CCC34CCC(NCc5ccc6c(n5)NC(=O)CO6)(CC3)CO4)c2n1`, the MIC turned out to be 0.063 µg/mL (≈ 0.121 µM) in the experiment with Staphylococcus aureus [1] (setting [3]); 0.063 µg/mL (≈ 0.121 µM) against Staphylococcus aureus [2]; 16 µg/mL (≈ 30.7 µM) in the experiment on Streptococcus pneumoniae (setting [4]); 16 µg/mL (≈ 30.7 µM) in the experiment with Enterococcus faecium (setting [5]); 8 µg/mL (≈ 15.3 µM) in the experiment with Escherichia coli (setting [6]); 2 µg/mL (≈ 3.83 µM) in the experiment on Acinetobacter baumannii (setting [7]). Moreover, the MIC with Pseudomonas aeruginosa (setting [8]) is 16 µg/mL (≈ 30.7 µM).
As to `O=C1COc2ccc(CNC34CCC(CCc5ccnc6cc(Cl)cnc56)(CC3)OC4)nc2N1`, the minimum inhibitory concentration (MIC) was found to be 64 µg/mL (≈ 133 µM) in the experiment with Staphylococcus aureus [1] (setting [3]); 16 µg/mL (≈ 33.3 µM) against Staphylococcus aureus [2]; 64 µg/mL (≈ 133 µM) in the experiment on Streptococcus pneumoniae (setting [4]); 64 µg/mL (≈ 133 µM) with Enterococcus faecium (setting [5]); 64 µg/mL (≈ 133 µM) in the experiment with Escherichia coli (setting [6]); 64 µg/mL (≈ 133 µM) in the experiment with Acinetobacter baumannii (setting [7]). Further, the MIC in the experiment with Pseudomonas aeruginosa (setting [8]) came to 64 µg/mL (≈ 133 µM).
As to `COc1cc2nccc(CCC34CCC(NCc5ccc6c(n5)NC(=O)CO6)(CC3)CO4)c2nc1C#N`, the MIC in the experiment on Staphylococcus aureus [1] (setting [3]) stood at 8 µg/mL (≈ 16 µM); against Staphylococcus aureus [2], 2 µg/mL (≈ 4 µM); in the experiment on Streptococcus pneumoniae (setting [4]), 32 µg/mL (≈ 63.9 µM); in the experiment on Enterococcus faecium (setting [5]), 32 µg/mL (≈ 63.9 µM); in the experiment on Escherichia coli (setting [6]) it was 32 µg/mL (≈ 63.9 µM); with Acinetobacter baumannii (setting [7]), 32 µg/mL (≈ 63.9 µM). Moreover, the MIC with Pseudomonas aeruginosa (setting [8]) is 32 µg/mL (≈ 63.9 µM).
For `COc1ccc2ncc(C#N)c(CCC34CCC(NCc5ccc6c(n5)NC(=O)CO6)(CC3)CO4)c2n1`, the MIC turned out to be 0.016 µg/mL (≈ 0.032 µM) in the experiment on Staphylococcus aureus [1] (setting [3]); 0.008 µg/mL (≈ 0.016 µM) with Staphylococcus aureus [2]; 0.125 µg/mL (≈ 0.25 µM) in the experiment with Streptococcus pneumoniae (setting [4]); 0.5 µg/mL (≈ 0.999 µM) in the experiment with Enterococcus faecium (setting [5]); 2 µg/mL (≈ 4 µM) with Escherichia coli (setting [6]); 1 µg/mL (≈ 2 µM) in the experiment on Acinetobacter baumannii (setting [7]). Also, in the experiment on Pseudomonas aeruginosa (setting [8]), the MIC was determined as 4 µg/mL (≈ 7.99 µM).
In the case of `N#Cc1ccc2ncc(C#N)c(CCC34CCC(NCc5ccc6c(n5)NC(=O)CO6)(CC3)CO4)c2n1`, the MIC in the experiment with Staphylococcus aureus [1] (setting [3]) stood at 0.25 µg/mL (≈ 0.504 µM); in the experiment with Staphylococcus aureus [2], 0.125 µg/mL (≈ 0.252 µM); with Streptococcus pneumoniae (setting [4]), 1 µg/mL (≈ 2.02 µM); in the experiment with Enterococcus faecium (setting [5]), 4 µg/mL (≈ 8.07 µM); in the experiment on Escherichia coli (setting [6]) it was 8 µg/mL (≈ 16.1 µM); in the experiment on Acinetobacter baumannii (setting [7]) it was 2 µg/mL (≈ 4.04 µM). Besides, the MIC with Pseudomonas aeruginosa (setting [8]) is 16 µg/mL (≈ 32.3 µM).
With `Cc1ccc2ncc(F)c(CCC34CCC(NCc5ccc6c(n5)NC(=O)CO6)(CC3)CO4)c2n1`, the MIC with Staphylococcus aureus [1] (setting [3]) is 0.25 µg/mL (≈ 0.524 µM); in the experiment on Staphylococcus aureus [2] it was 0.125 µg/mL (≈ 0.262 µM); with Streptococcus pneumoniae (setting [4]), 2 µg/mL (≈ 4.19 µM); with Enterococcus faecium (setting [5]), 4 µg/mL (≈ 8.38 µM); with Escherichia coli (setting [6]), 8 µg/mL (≈ 16.8 µM); in the experiment with Acinetobacter baumannii (setting [7]), 2 µg/mL (≈ 4.19 µM). Besides, the MIC in the experiment on Pseudomonas aeruginosa (setting [8]) is 16 µg/mL (≈ 33.5 µM).
As to `COc1nc2c(CCC34CCC(NCc5ccc6c(n5)NC(=O)CO6)(CC3)CO4)ccnc2cc1F`, the minimal inhibitory concentration (MIC) in the experiment with Staphylococcus aureus [1] (setting [3]) came out at 0.125 µg/mL (≈ 0.253 µM); in the experiment with Staphylococcus aureus [2], 0.063 µg/mL (≈ 0.128 µM); in the experiment on Streptococcus pneumoniae (setting [4]) it was 2 µg/mL (≈ 4.05 µM); in the experiment with Enterococcus faecium (setting [5]), 4 µg/mL (≈ 8.1 µM); in the experiment on Escherichia coli (setting [6]) it was 4 µg/mL (≈ 8.1 µM); in the experiment on Acinetobacter baumannii (setting [7]) it was 2 µg/mL (≈ 4.05 µM). Besides, the MIC in the experiment on Pseudomonas aeruginosa (setting [8]) was found to be 16 µg/mL (≈ 32.4 µM).
As to `O=C1COc2ccc(CNC34CCC(CCc5ccnc6cc(F)cnc56)(CC3)OC4)nc2N1`, the MIC in the experiment on Staphylococcus aureus [1] (setting [3]) is 16 µg/mL (≈ 34.5 µM); in the experiment on Staphylococcus aureus [2] it was 8 µg/mL (≈ 17.3 µM); in the experiment on Streptococcus pneumoniae (setting [4]), 32 µg/mL (≈ 69 µM); in the experiment with Enterococcus faecium (setting [5]) it was 32 µg/mL (≈ 69 µM); in the experiment on Escherichia coli (setting [6]) it was 32 µg/mL (≈ 69 µM); in the experiment with Acinetobacter baumannii (setting [7]) it was 16 µg/mL (≈ 34.5 µM). The MIC with Pseudomonas aeruginosa (setting [8]) is 32 µg/mL (≈ 69 µM).
